Laboratory results reported in patent publication US20030036082A1, “Screening methods” (priority 2001, published 2003).

Legend:
[1] = test system: epitrochlearis muscle from Wistar rats; assay: 3-O-methyl-glucose transport in isolated epitrochlearis muscle; type: cell-based; conditions: 25 μM inhibitor, Wistar rat epitrochlearis muscle
Description: The influence of total DGK activity on insulin-stimulated glucose uptake was assessed by measurements on epitrochlearis muscle from Wistar rats using a specific inhibitor for diacylglycerol kinase, DGK inhibitor II™ (Jang, Y. et al. (2000) Biochem. Pharmacol. 59: 763-772).
Media were prepared from a pre-gassed (95% O2/5% CO2) Krebs Henseleit buffer (KHB) containing 5 mM glucose and 0.1% BSA (RIA grade). Epitrochlearis muscles were incubated (20 min) in a shaking water bath (30° C.) in 2 ml of KHB, supplemented with 20 mM mannitol, with or without 2.4 nM insulin and 25 μM DGK-II inhibitor (Calbiochem). Muscles were transferred to KHB containing 8 mM 3-O-methyl[^3H]glucose (438 μCi/mmol; 1 Ci=[…]) and 12 mM [^14C]mannitol (42 μCi/mmol) and incubated (10 min) with or without insulin and 25 μM of DGKII inhibitor. 3-O-methyl-glucose transport activity was assessed as described (Wallberg-Henriksson et al. (1987) J. Biol. Chem. 262: 7665-7671) and expressed as micromoles per milliliter of intracellular water per hour.

total DGK activity [2] = assay: Reduction of total DGK activity by DGK inhibitor (data not shown); type: biochemical
DGKδ = DGKδ protein expression in gastrocnemius skeletal muscle by immunoblotting after phlorizin treatment; type: in vivo; conditions: GK rats, phlorizin 0.8 g/kg body wt per day s.c. for 4 weeks
Description: (§1) In order to investigate the influence of DGKδ on insulin-stimulated glucose uptake in more detail, DGKδ expression studies and measurements of DGK activity were performed in GK rats, a lean animal model for type 2 diabetes (Goto et al., pp. 301-303 in: Frontiers in Diabetes Research (Shafrir E., Renold, A E, Eds.) London, John Libbey, 1988). Male GK rats (200-250 g) were obtained from the Karolinska Institute, Sweden. Weight-matched male Wistar rats served as controls (B&K Universal, Sollentuna, Sweden). All rats were maintained under a 12-hour light/dark cycle, and had free access to water and standard rodent diet. Four groups of animals were studied: vehicle-treated Wistar rats (n=5), phlorizin-treated Wistar rats (n=6), vehicle-treated GK-rats (n=6) and phlorizin-treated GK-rats (n=6). […]
Portions of the gastrocnemius skeletal muscle (approximately 30 mg) were crushed in liquid N2 and then lysed in ice-cold buffer (137 mM NaCl, 2.7 mM KCl, 1 mM MgCl2, 0.5 mM Na3VO4, 1% Triton X-100, 10% glycerol, 20 mM Tris pH 8.0, […] leupeptin, 0.2 mM PMSF, 10 mM NaF, 10 μg/ml aprotinin). […] The supernatant was removed and protein concentration was determined. […] Proteins were visualized by ECL and quantified by densitometric scanning.

total DGK activity [3] = assay: Octyl glucoside/PS mixed-micelle assay of total DGK activity in gastrocnemius muscle after phlorizin treatment; type: in vivo; conditions: GK rats, phlorizin 0.8 g/kg body wt per day s.c. for 4 weeks
Description: as §1, with “diet.” for “diet. Four groups of animals were studied: vehicle-treated Wistar rats (n=5), phlorizin-treated Wistar rats (n=6), vehicle-treated GK-rats (n=6) and phlorizin-treated GK-rats (n=6).”
Portions of the gastrocnemius skeletal muscle (approximately 30 mg) were crushed in liquid nitrogen, homogenized by sonication in ice-cold buffer containing 20 mM Tris-HCl, pH 7.5, 250 mM sucrose, 1 mM EDTA, 1 mM EGTA, 1 mM dithiothreitol (DTT), 1 mM PMSF, a 20 μg/ml concentration of each: leupeptin, pepstatin, aprotinin, and soybean trypsin inhibitor and centrifuged at 12,000×g for 10 min at 4° C. The supernatant was collected and protein concentration was determined.
An octyl glucoside/PS mixed-micelle assay of total DGK activity was performed using [γ-^32P] […] The region containing phosphatidic acid was quantified by phosphoimaging and densitometry.

[4] = diabetic GK rats, treatment with phlorizin; cited from earlier work

SMILES | decrease of insulin-stimulated glucose transport ([1]; 2.4 nM insulin) | basal glucose transport ([1]; without insulin) | reduction of total DGK activity (total DGK activity [2]) [%] | DGK content in the muscle (DGKδ protein level, immunoblot densitometry) (DGKδ) | total DGK activity in muscle (total DGK activity [3]) | blood glucose levels [4]
O=c1c2ccccc2[nH]c(=S)n1CCN1CCC(=C(c2ccc(F)cc2)c2ccc(F)cc2)CC1 [DGK inhibitor II™] | approximately 30% | not affected | 70 | – | – | –
O=C(CCc1ccc(O)cc1)c1c(O)cc(O)cc1O[C@@H]1O[C@H](CO)[C@@H](O)[C@H](O)[C@H]1O [phlorizin, Phlorizin] | – | – | – | increase of DGK content in the muscle to approximately the same values as measured in healthy Wistar rats | increase of total DGK activity in GK rat muscle upon phlorizin treatment to a level measured in muscle from healthy Wistar rats | brings glucose levels back to normal values
